Source: article PMC10246881 (2023)

Tests used:
[1] = system: dsOligo 1 (CGCGAATTCGCG) (DNA, duplex) CGCGAATTCGCG; experiment: X-ray crystallography (2.2 Å); conditions: minor groove at AATT; mixed 1:1, 4% DMSO; crystals at 14 °C
[2] = system: (poly[dG-dC])2 (DNA, polymer) GC; experiment: intrinsic fluorescence titration; conditions: 100 mM NaCl; 50 mM Tris-HCl, 0.1 mM EDTA, pH 7.4; 2 μM ridinilazole, polymer titrated
[3] = system: poly(dA)·poly(dT) (DNA, polymer) A/T; experiment: intrinsic fluorescence titration; conditions: 100 mM NaCl; 50 mM Tris-HCl, 0.1 mM EDTA, pH 7.4; 2 μM ridinilazole, polymer titrated
[4] = system: (poly[dA-dT])2 (DNA, polymer) AT; experiment: intrinsic fluorescence titration; conditions: 100 mM NaCl; 50 mM Tris-HCl, 0.1 mM EDTA, pH 7.4; 2 μM ridinilazole, polymer titrated
[5] = system: dsOligo 1 (CGCGAATTCGCG) (DNA, duplex) CGCGAATTCGCG; experiment: intrinsic fluorescence titration, tight-binding linear fit; conditions: 100 mM NaCl; 50 mM Tris-HCl, 0.1 mM EDTA, pH 7.4; oligo titrated into fixed ridinilazole
[6] = system: dsOligo 2 (CGCAAATTTGCG) (DNA, duplex) CGCAAATTTGCG; experiment: as above; conditions: 100 mM NaCl; 50 mM Tris-HCl, 0.1 mM EDTA, pH 7.4; oligo titrated into fixed ridinilazole

binding [1]: yes | binding [2]: no | binding [3]: yes | binding [4]: yes | Kd [5]: 21.6 nM | Kd [6]: 21.3 nM
SMILES: c1cc(-c2nc3cc(-c4ccc5nc(-c6ccncc6)[nH]c5c4)ccc3[nH]2)ccn1
